Measured values published in publication PMC10454728, “A Comparative Study on the Lysosomal Cation Channel TMEM175 Using Automated Whole-Cell Patch-Clamp, Lysosomal Patch-Clamp, and Solid Supported Membrane-Based Electrophysiology: Functional Characterization and High-Throughput Screening Assay Development” (International Journal of Molecular Sciences, 2023).

How the values were obtained:
TMEM175 [1] = target: T1, TMEM175 (Homo sapiens, UniProt Q9BSA9); experiment: Manual lysosomal patch-clamp (LPC) on vacuolin-1 enlarged lysosomes; type: biochemical
T1 sequence (Q9BSA9 1-504): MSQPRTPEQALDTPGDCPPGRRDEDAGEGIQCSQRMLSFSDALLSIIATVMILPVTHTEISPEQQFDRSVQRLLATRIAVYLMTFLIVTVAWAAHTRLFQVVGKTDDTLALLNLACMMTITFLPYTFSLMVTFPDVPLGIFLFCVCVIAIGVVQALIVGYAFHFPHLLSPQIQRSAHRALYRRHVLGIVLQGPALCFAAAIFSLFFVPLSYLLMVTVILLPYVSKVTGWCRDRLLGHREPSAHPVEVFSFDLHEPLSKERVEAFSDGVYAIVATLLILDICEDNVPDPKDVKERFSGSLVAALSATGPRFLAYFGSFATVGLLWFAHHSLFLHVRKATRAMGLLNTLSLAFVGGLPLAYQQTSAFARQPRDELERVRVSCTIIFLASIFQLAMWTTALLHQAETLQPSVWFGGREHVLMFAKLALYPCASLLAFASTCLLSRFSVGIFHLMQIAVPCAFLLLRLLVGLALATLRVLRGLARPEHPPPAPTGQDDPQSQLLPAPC
Experimental: Since both technologies apply different assay conditions and samples, the origin of the discrepancies may not be concluded. To investigate potential systematic variations among different assay technologies, namely, whole-cell APC, SSME on purified lysosomes, and manual LPC, we conducted a comparative analysis of the potency and maximum potentiation of a set of eight blinded compounds and SC-79 (Figure 8, Table 4). SSME recordings were performed using the same procedures as described for the tool compounds above. However, adjustments were made to the voltage application protocol in APC, as outlined in the Methods section. Lysosomal patch-clamp was performed using a manual setup. In contrast to APC and SSME recordings, the recorded current in LPC represents H^+ efflux from lysosomes in the presence of a physiological pH gradient (details are provided in the Methods section).
Experiments were carried out in whole-lysosome configuration in voltage-clamp mode, using a modified patch-clamp method, as described by Chen et al..
Briefly, cells were treated overnight with 5 µM vacuolin-1 to increase the size of the lysosomes. Mechanical isolation was performed using a patch pipette pressed against a selected cell, and quickly pulled away to slice the cell membrane to release the enlarged lysosomes into the dish. After the dissection of the lysosomes, the glass electrode was exchanged for a recording electrode. After the formation of a giga-seal and compensation of capacitance transients, voltage steps of several hundred millivolts with millisecond duration were applied to break into the vacuolar membrane.
The bath solution representing the cytosol contained 10 mM HEPES (pH 7.2), 145 mM K-methanesulfonate and 5 mM KCl. The pipette solution representing the lysosomal lumen contained 10 mM MES (pH 5.5), 145 mM Cs-methanesulfonate, 5 mM KCl, and 10 mM EGTA.
After the reappearance of capacitance transients to verify the whole-lysosome configuration, the TMEM175 currents were recorded using a ramp protocol from −100 to +100 mV with 1 s of duration, digitized at 20 kHz. The ramp protocol was repeated in 4 s intervals, keeping the lysosomes at 0 mV in between. We used the outward current at +100 mV as a read-out, essentially observing the flux of H^+ and Cs^+ from the lysosome into the cytosol. […]
Before averaging across datasets obtained from N = 3 lysosomes, we normalized the currents to the control current. Datasets containing 6 or 9 compound concentrations were recorded in two or three sets of experiments with 3 compound concentrations per lysosome. All experiments were conducted at room temperature, and recordings were analyzed with pClamp 10.7 and GraphPad Prism 8.

TMEM175 [2] = target: T1, TMEM175; experiment: Whole-cell automated patch-clamp (APC) Cs+ flux assay, SyncroPatch 384i, HEK293 overexpressing TMEM175; type: cell-based; conditions: 50 µM, at +100 mV, Figure 7F
control HEK293 UT cells = experiment: Whole-cell APC off-target effects on control cells; type: cell-based, human; conditions: 50 µM
Experimental: Figure 7 Whole-cell APC recordings on TMEM175: (A) Schematic representation of assay conditions in the Cs^+ flux assay. The ions known to permeate through TMEM175 in the external and internal solutions are indicated; (B) Voltage protocol and time points for the read-out of inward and outward currents; (C) The compound application protocol consists of the recording of the TMEM175 baseline current. […] Success rates were determined based on the QC criteria provided in the Methods section. […] We determined average values, AVGpos and AVGneg, and standard deviations, SDpos and SDneg, of the recorded currents. […] Datapoints were normalized to the TMEM175 baseline current before compound addition and then averaged across at least N = 5 cells. Error bars represent the SEM obtained from automated data analysis using DataControl384. […] The compound effects on control cells were between +10% and -40% compared to the control baseline current. […]. […] Therefore, off-target compound effects seem to be negligible in the APC assay.

| Imax − Imin (nA), LPC (TMEM175 [1]; Table 4 fit, currents normalized to current before compound) | n (Hill coefficient), LPC (TMEM175 [1]; fixed to 1 in the fit) | Potentiation, LPC (TMEM175 [1]; from dose-response fit, Figure 8) | EC50 (TMEM175 [1]; outward current at +100 mV, pipette pH 5.5 / bath pH 7.2) | Current of TMEM175 cells after enhancer, APC (TMEM175 [2]) | Compound | Decrease of baseline current of control cells (control HEK293 UT cells) |
| --- | --- | --- | --- | --- | --- | --- |
| 0.91 ± 0.52 nA | 1 | 91 ± 52% | 21 ± 32 µM | 305 ± 39% | CCOC(=O)C1=C(N)Oc2ccc(Cl)cc2C1C(C#N)C(=O)OCC (stereo not drawn) [SC-79] | – |
| – | – | – | – | – | [Cl-].[Cl-].[Zn+2] [Zn, ZnCl2] | 30–40% |
